BigSolDB 2.1

Nc1cc([N+](=O)[O-])ccc1Cl
solubility (mole fraction)
Settings	273.15 K	278.15 K	283.15 K	288.15 K	293.15 K	298.15 K	303.15 K	308.15 K	313.15 K
in 1,4-dioxane	–	–	–	0.11	0.119	0.13	0.142	0.154	0.169
in 2-butanone	0.0877	0.0973	0.108	0.119	0.13	0.141	0.153	0.165	0.179
in NMP	0.155	0.161	0.166	0.173	0.179	0.186	0.193	0.201	0.209
in acetone	0.103	0.112	0.122	0.133	0.144	0.156	0.168	0.182	0.197
in acetonitrile	0.0222	0.0277	0.0342	0.0413	0.0495	0.0579	0.0671	0.077	0.0877
in ethanol	0.0097	0.0112	0.0129	0.0149	0.0173	0.0198	0.0227	0.0258	0.0297
in ethyl acetate	0.0765	0.0836	0.0915	0.0991	0.107	0.116	0.126	0.135	0.145
in isopropanol	0.0047	0.0059	0.0074	0.0091	0.0109	0.0132	0.0158	0.0188	0.0226
in methanol	0.0071	0.0085	0.01	0.0118	0.0141	0.0165	0.0193	0.0227	0.0263
in n-butanol	0.0055	0.0069	0.0086	0.0104	0.0128	0.0153	0.0182	0.0213	0.0252
in n-propanol	0.008	0.0094	0.011	0.0129	0.0152	0.0177	0.0209	0.0246	0.0283
in toluene	0.0118	0.0134	0.0153	0.0174	0.0199	0.0231	0.0268	0.0309	0.0352
